Key:
Type in all cases: in vivo
[1] = test system: redroot pigweed (Amaranthus retroflexus); experiment: Test A pre/postemergence
In short: (§1)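 Seeds in loam–sand blend received preemergence directed soil spray and, concurrently, postemergence application (plants 2–10 cm, 1–2-leaf stage) of compound in non-phytotoxic solvent with surfactant. After about ten days in greenhouse, injury rated visually versus untreated controls, 0 (no effect) to 100 (complete control).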

[2] = test system: barnyardgrass (Echinochloa crus-galli); experiment: Test A pre/postemergence
In short: as §1

[3] = test system: crabgrass (Digitaria sanguinalis); experiment: Test A pre/postemergence
In short: as §1

[4] = test system: giant foxtail (Setaria faberi); experiment: Test A pre/postemergence
In short: as §1

[5] = test system: morningglory (Ipomoea spp.); experiment: Test A pre/postemergence
In short: as §1

[6] = test system: velvetleaf (Abutilon theophrasti); experiment: Test A pre/postemergence
In short: as §1

[7] = test system: rice flatsedge (Cyperus iria); experiment: Test E flooded paddy water application; details: Flood, 21 days, scale 0 to 100 (0 no effect, 100 complete control); for Plant response rating, Flatsedge, Rice: 16 g ai/ha
In short: (§2)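 Response scored visually on a 0–100 scale (100 = complete control) at 21 days against untreated pots. Treatment was into paddy water 3 cm deep over silt loam, with plants at the 2.0–2.5-leaf stage, grown under 16-h light at 29.5/26.7 °C day/night.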

[8] = test system: purple redstem (Ammannia coccinea); experiment: Test E flooded paddy water application; details: Flood, 21 days, scale 0 to 100 (0 no effect, 100 complete control); for Plant response rating, Redstem: 16 g ai/ha
In short: as §2

[9] = test system: barnyardgrass (Echinochloa crus-galli); experiment: Test E flooded paddy water application; details: Flood, 21 days, scale 0 to 100 (0 no effect, 100 complete control)
In short: as §2

[10] = test system: water seeded rice seedlings (Oryza sativa cv. ‘Japonica-M202’); experiment: Test E flooded paddy water application; details: Flood, 21 days, scale 0 to 100 (0 no effect, 100 complete control); for Plant response rating, Rice, Water Seeded: 16 g ai/ha
In short: as §2

[11] = test system: transplanted rice seedlings (Oryza sativa cv. ‘Japonica-M202’); experiment: Test E flooded paddy water application; details: Flood, 21 days, scale 0 to 100 (0 no effect, 100 complete control); for Plant response rating, Rice, Transplanted: 16 g ai/ha
In short: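 Greenhouse pots of Tama silt loam with weeds and rice at 2.0–2.5-leaf stage, flooded to 3 cm; compounds applied directly into paddy water, depth maintained. Visual rating versus untreated controls after 21 days, 0 (no effect) to 100 (complete control); 29.5/26.7 °C, 16-h photoperiod.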

[12] = test system: late watergrass (Echinochloa oryzicola); experiment: Test E flooded paddy water application; details: Flood, 21 days, scale 0 to 100 (0 no effect, 100 complete control); for Plant response rating, Watergrass, Late: 16 g ai/ha
In short: as §2

[13] = test system: ducksalad (Heteranthera limosa); experiment: Test E flooded paddy water application; details: Flood, 21 days, scale 0 to 100 (0 no effect, 100 complete control); for Plant response rating, Ducksalad: 16 g ai/ha
In short: as §2

[14] = test system: junglerice (Echinochloa colona); experiment: Test E flooded paddy water application; details: Flood, 21 days, scale 0 to 100 (0 no effect, 100 complete control); for Plant response rating, Junglerice: 16 g ai/ha
In short: as §2

[15] = test system: smallflower umbrella sedge (Cyperus difformis); experiment: Test E flooded paddy water application; details: Flood, 21 days, scale 0 to 100 (0 no effect, 100 complete control); for Plant response rating, Sedge, Umbrella: 16 g ai/ha
In short: as §2

[16] = test system: early watergrass (Echinochloa oryzoides); experiment: Test E flooded paddy water application; details: Flood, 21 days, scale 0 to 100 (0 no effect, 100 complete control); for Plant response rating, Watergrass, Early: 16 g ai/ha
In short: as §2

[17] = test system: bearded (brdd.) sprangletop (Leptochloa fusca ssp. fascicularis); experiment: Test E flooded paddy water application; details: Flood, 21 days, scale 0 to 100 (0 no effect, 100 complete control); for Plant response rating, Sprangletop, Brdd.: 16 g ai/ha
In short: as §2

[18] = Postemergence, 125 g ai/ha, 0 to 100 scale (0 no effect, 100 complete control)
[19] = Postemergence, 500 g ai/ha, 0 to 100 scale (0 no effect, 100 complete control)
[20] = Preemergence, 125 g ai/ha, 0 to 100 scale where 0 is no effect and 100 is complete control, approximately ten days
[21] = Preemergence, 500 g ai/ha, 0 to 100 scale where 0 is no effect and 100 is complete control, approximately ten days

## CCOC(=O)c1nc(-c2ccc(Cl)cc2Cl)nc(N)c1Cl [Compound 72]
[1]; [18]
  Plant response rating, Pigweed: 95
[1]; [19]
  Plant response rating, Pigweed: 95
[1]; [20]
  Plant response rating, Pigweed: 75
[1]; [21]
  Plant response rating, Pigweed: 100
[2]; [18]
  Plant response rating, Barnyardgrass: 0
[2]; [19]
  Plant response rating, Barnyardgrass: 0
[2]; [20]
  Plant response rating, Barnyardgrass: 0
[2]; [21]
  Plant response rating, Barnyardgrass: 0
[3]; [18]
  Plant response rating, Crabgrass: 10
[3]; [19]
  Plant response rating, Crabgrass: 30
[3]; [20]
  Plant response rating, Crabgrass: 0
[3]; [21]
  Plant response rating, Crabgrass: 0
[4]; [18]
  Plant response rating, Foxtail, Giant: 0
[4]; [19]
  Plant response rating, Foxtail, Giant: 0
[4]; [20]
  Plant response rating, Foxtail, Giant: 0
[4]; [21]
  Plant response rating, Foxtail, Giant: 0
[5]; [18]
  Plant response rating, Morningglory: 55
[5]; [19]
  Plant response rating, Morningglory: 70
[5]; [20]
  Plant response rating, Morningglory: 0
[5]; [21]
  Plant response rating, Morningglory: 0
[6]; [18]
  Plant response rating, Velvetleaf: 85
[6]; [19]
  Plant response rating, Velvetleaf: 85
[6]; [20]
  Plant response rating, Velvetleaf: 40
[6]; [21]
  Plant response rating, Velvetleaf: 55
[7]; 32 g ai/ha
  Flatsedge, Rice plant response rating: 100
[7]; 64 g ai/ha
  Flatsedge, Rice plant response rating: 100
[7]; 125 g ai/ha
  Flatsedge, Rice plant response rating: 100
[7]; 250 g ai/ha
  Flatsedge, Rice plant response rating: 100
[7]
  Plant response rating, Flatsedge, Rice: 90
[8]; 32 g ai/ha
  Redstem plant response rating: 25
[8]; 64 g ai/ha
  Redstem plant response rating: 25
[8]; 125 g ai/ha
  Redstem plant response rating: 35
[8]; 250 g ai/ha
  Redstem plant response rating: 100
[8]
  Plant response rating, Redstem: 0
[9]; 32 g ai/ha
  Barnyardgrass plant response rating: 0
[9]; 125 g ai/ha
  Barnyardgrass plant response rating: 0
[9]; 250 g ai/ha
  Barnyardgrass plant response rating: 0
[10]; 32 g ai/ha
  Rice, Water Seeded plant response rating: 0
[10]; 64 g ai/ha
  Rice, Water Seeded plant response rating: 0
[10]; 125 g ai/ha
  Rice, Water Seeded plant response rating: 0
[10]; 250 g ai/ha
  Rice, Water Seeded plant response rating: 0
[10]
  Plant response rating, Rice, Water Seeded: 0
[11]; 32 g ai/ha
  Rice, Transplanted plant response rating: 0
[11]; 64 g ai/ha
  Rice, Transplanted plant response rating: 0
[11]; 125 g ai/ha
  Rice, Transplanted plant response rating: 0
[11]; 250 g ai/ha
  Rice, Transplanted plant response rating: 0
[11]
  Plant response rating, Rice, Transplanted: 0
[12]; 32 g ai/ha
  Watergrass, Late plant response rating: 0
[12]; 64 g ai/ha
  Watergrass, Late plant response rating: 0
[12]; 125 g ai/ha
  Watergrass, Late plant response rating: 0
[12]; 250 g ai/ha
  Watergrass, Late plant response rating: 0
[12]
  Plant response rating, Watergrass, Late: 0
[13]; 32 g ai/ha
  Ducksalad plant response rating: 80
[13]; 64 g ai/ha
  Ducksalad plant response rating: 100
[13]; 125 g ai/ha
  Ducksalad plant response rating: 100
[13]; 250 g ai/ha
  Ducksalad plant response rating: 100
[13]
  Plant response rating, Ducksalad: 80
[14]; 32 g ai/ha
  Junglerice plant response rating: 0
[14]; 64 g ai/ha
  Junglerice plant response rating: 0
[14]; 125 g ai/ha
  Junglerice plant response rating: 0
[14]; 250 g ai/ha
  Junglerice plant response rating: 0
[14]
  Plant response rating, Junglerice: 0
[15]; 32 g ai/ha
  Sedge, Umbrella plant response rating: 30
[15]; 64 g ai/ha
  Sedge, Umbrella plant response rating: 75
[15]; 125 g ai/ha
  Sedge, Umbrella plant response rating: 90
[15]; 250 g ai/ha
  Sedge, Umbrella plant response rating: 100
[15]
  Plant response rating, Sedge, Umbrella: 0
[16]; 32 g ai/ha
  Watergrass, Early plant response rating: 0
[16]; 64 g ai/ha
  Watergrass, Early plant response rating: 0
[16]; 125 g ai/ha
  Watergrass, Early plant response rating: 0
[16]; 250 g ai/ha
  Watergrass, Early plant response rating: 0
[16]
  Plant response rating, Watergrass, Early: 0
[17]; 32 g ai/ha
  Sprangletop, Brdd. plant response rating: 0
[17]; 64 g ai/ha
  Sprangletop, Brdd. plant response rating: 0
[17]; 125 g ai/ha
  Sprangletop, Brdd. plant response rating: 0
[17]; 250 g ai/ha
  Sprangletop, Brdd. plant response rating: 0
[17]
  Plant response rating, Sprangletop, Brdd.: 0

## CCOC(=O)c1nc(-c2ccc(Cl)c(Cl)c2)nc(N)c1Cl [Compound 73]
[1]; [18]
  Plant response rating, Pigweed: 75
[1]; [19]
  Plant response rating, Pigweed: 80
[1]; [20]
  Plant response rating, Pigweed: 15
[1]; [21]
  Plant response rating, Pigweed: 60
[2]; [18]
  Plant response rating, Barnyardgrass: 0
[2]; [19]
  Plant response rating, Barnyardgrass: 5
[2]; [20]
  Plant response rating, Barnyardgrass: 5
[2]; [21]
  Plant response rating, Barnyardgrass: 30
[3]; [18]
  Plant response rating, Crabgrass: 15
[3]; [19]
  Plant response rating, Crabgrass: 35
[3]; [20]
  Plant response rating, Crabgrass: 5
[3]; [21]
  Plant response rating, Crabgrass: 35
[4]; [18]
  Plant response rating, Foxtail, Giant: 15
[4]; [19]
  Plant response rating, Foxtail, Giant: 45
[4]; [20]
  Plant response rating, Foxtail, Giant: 0
[4]; [21]
  Plant response rating, Foxtail, Giant: 15
[5]; [18]
  Plant response rating, Morningglory: 50
[5]; [19]
  Plant response rating, Morningglory: 65
[5]; [20]
  Plant response rating, Morningglory: 0
[5]; [21]
  Plant response rating, Morningglory: 0
[6]; [18]
  Plant response rating, Velvetleaf: 70
[6]; [19]
  Plant response rating, Velvetleaf: 75
[6]; [20]
  Plant response rating, Velvetleaf: 35
[6]; [21]
  Plant response rating, Velvetleaf: 40
[7]; 32 g ai/ha
  Flatsedge, Rice plant response rating: 0
[7]; 64 g ai/ha
  Flatsedge, Rice plant response rating: 0
[7]; 250 g ai/ha
  Flatsedge, Rice plant response rating: 45
[7]
  Plant response rating, Flatsedge, Rice: 0
[8]; 32 g ai/ha
  Redstem plant response rating: 0
[8]; 64 g ai/ha
  Redstem plant response rating: 90
[8]; 125 g ai/ha
  Redstem plant response rating: 100
[8]; 250 g ai/ha
  Redstem plant response rating: 100
[8]
  Plant response rating, Redstem: 0
[9]; 64 g ai/ha
  Barnyardgrass plant response rating: 0
[9]; 125 g ai/ha
  Barnyardgrass plant response rating: 90
[9]; 250 g ai/ha
  Barnyardgrass plant response rating: 100
[9]; 16 g ai/ha
  Plant response rating, Barnyardgrass: 0
[10]; 32 g ai/ha
  Rice, Water Seeded plant response rating: 0
[10]; 64 g ai/ha
  Rice, Water Seeded plant response rating: 0
[10]; 125 g ai/ha
  Rice, Water Seeded plant response rating: 0
[10]; 250 g ai/ha
  Rice, Water Seeded plant response rating: 0
[10]
  Plant response rating, Rice, Water Seeded: 0
[11]; 32 g ai/ha
  Rice, Transplanted plant response rating: 0
[11]; 64 g ai/ha
  Rice, Transplanted plant response rating: 0
[11]; 125 g ai/ha
  Rice, Transplanted plant response rating: 0
[11]; 250 g ai/ha
  Rice, Transplanted plant response rating: 0
[11]
  Plant response rating, Rice, Transplanted: 0
[12]; 32 g ai/ha
  Watergrass, Late plant response rating: 0
[12]; 64 g ai/ha
  Watergrass, Late plant response rating: 0
[12]; 125 g ai/ha
  Watergrass, Late plant response rating: 0
[12]; 250 g ai/ha
  Watergrass, Late plant response rating: 20
[12]
  Plant response rating, Watergrass, Late: 0
[13]; 32 g ai/ha
  Ducksalad plant response rating: 100
[13]; 64 g ai/ha
  Ducksalad plant response rating: 100
[13]; 125 g ai/ha
  Ducksalad plant response rating: 100
[13]; 250 g ai/ha
  Ducksalad plant response rating: 100
[13]
  Plant response rating, Ducksalad: 75
[14]; 32 g ai/ha
  Junglerice plant response rating: 0
[14]; 64 g ai/ha
  Junglerice plant response rating: 0
[14]; 125 g ai/ha
  Junglerice plant response rating: 0
[14]; 250 g ai/ha
  Junglerice plant response rating: 0
[14]
  Plant response rating, Junglerice: 0
[15]; 32 g ai/ha
  Sedge, Umbrella plant response rating: 0
[15]; 64 g ai/ha
  Sedge, Umbrella plant response rating: 0
[15]; 125 g ai/ha
  Sedge, Umbrella plant response rating: 35
[15]; 250 g ai/ha
  Sedge, Umbrella plant response rating: 85
[15]
  Plant response rating, Sedge, Umbrella: 0
[16]; 32 g ai/ha
  Watergrass, Early plant response rating: 0
[16]; 64 g ai/ha
  Watergrass, Early plant response rating: 0
[16]; 125 g ai/ha
  Watergrass, Early plant response rating: 0
[16]; 250 g ai/ha
  Watergrass, Early plant response rating: 0
[16]
  Plant response rating, Watergrass, Early: 0
[17]; 32 g ai/ha
  Sprangletop, Brdd. plant response rating: 0
[17]; 64 g ai/ha
  Sprangletop, Brdd. plant response rating: 0
[17]; 125 g ai/ha
  Sprangletop, Brdd. plant response rating: 50
[17]; 250 g ai/ha
  Sprangletop, Brdd. plant response rating: 70
[17]
  Plant response rating, Sprangletop, Brdd.: 0

— patent US8802597B2, “Herbicidal pyrimidines” (E I du Pont de Nemours and Company, priority 2003, dated 2014)
